The record followed here is patent publication US6933298B2, “Pyridine-2,4-dicarboxylic acid diamides and pyrimidine-4,6-dicarboxylic acid diamides and the use thereof for selectively inhibiting collagenases” (Aventis Pharma Deutschland GmbH, priority 2001, dated 2005).

The target of the experiment is T1, catalytic domain of human collagenase-3 (MMP-13) (Homo sapiens, UniProt P45452).
T1 construct: Determining the enzymic activity of the catalytic domain of human collagenase-3 (MMP-13); purchased INVITEK, Berlin 30 100 803
As to the kind of experiment: Enzymic activity of the catalytic domain of human collagenase-3 (MMP-13), fluorogenic substrate. Type of experiment: biochemical. The conditions noted are these: activated with APMA, pH 7.5, read-out: IC50 MMP13. The protocol: Determining the enzymic activity of the catalytic domain of human collagenase-3 (MMP-13).
Activation of the proenzyme:
2 parts by volume of proenzyme are incubated with 1 part by volume of APMA solution at 37° C. for 1.5 hours. The APMA solution is prepared from a 10 mmol/l solution of p-aminophenylmercuric acetate in 0.1 mmol/l NaOH by diluting it with 3 parts by volume of Tris/HCl buffer, pH 7.5 (see below). The pH is adjusted to between 7.0 and 7.5 by adding 1 mmol/l HCl.
In order to measure the enzyme activity, 10 μl of enzyme solution are incubated for 15 minutes with 10 μl of a buffered 3% (v/v) solution of dimethyl sulfoxide (reaction 1). In order to measure the enzyme inhibitor activity, 10 μl of enzyme solution are incubated with 10 μl of a buffered 3% (v/v) solution of dimethyl sulfoxide which contains the enzyme inhibitor (reaction 2).
The enzyme activity is presented as increase in extinction/minute.
The buffer solution contains 0.05% Brij (Sigma, Deisenhofen, Germany) and also 0.1 mol of Tris/HCl/l, 0.1 mol of NaCl/1 and 0.01 mol of CaCl2/l (pH=7.5).
The substrate solution contains 0.75 mmol of the fluorogenic substrate (7-methoxycoumarin-4-yl)acetyl-Pro-Leu-Gly-Leu-3-(2′,4′-dinitrophenyl)-L-2,3-diaminopropionyl-Ala-Arg-NH2/I(Bachem, Heidelberg, Germany).
One may read the IC50 as the midpoint of a concentration-inhibition curve. As for `O=C(NCc1ccc(F)c(Cl)c1)c1cc(C(=O)NCc2ccc(F)c(Cl)c2)ncn1` [Example 2, Pyrimidine-4,6-dicarboxylic acid bis(3-chloro-4-fluorobenzylamide)], the 50% inhibitory concentration (IC50) worked out at 23 nM.

Regarding `O=C(NCc1ccc(Cl)cc1)c1cc(C(=O)NCc2ccc(Cl)cc2)ncn1` [Example 3], the IC50 was 5600 nM.

As for `O=C(NCc1ccccc1)c1ccnc(C(=O)NCc2ccccc2)c1` [Example 4], the concentration for half-maximal inhibition (IC50) was 3400 nM.

Take `Cc1ccc(CNC(=O)c2cc(C(=O)NCc3ccc(C)cc3)ncn2)cc1` [Example 5]: the 50% inhibitory concentration (IC50) turned out to be 2000 nM.

With `O=C(NCc1cccc(OC(F)(F)F)c1)c1cc(C(=O)NCc2cccc(OC(F)(F)F)c2)ncn1` [Example 6], the IC50 was determined as 700 nM.

Consider `O=C(NCc1ccc(F)cc1)c1ccnc(C(=O)NCc2ccc(F)cc2)c1` [Example 7], for which the IC50 came out at 620 nM.

Turning to `Cc1cccc(CNC(=O)c2ccnc(C(=O)NCc3cccc(C)c3)c2)c1` [Example 8], the IC50 was determined as 400 nM.

Regarding `COc1ccc(CNC(=O)c2ccnc(C(=O)NCc3ccc(OC)cc3)c2)cc1` [Example 9], the IC50 was found to be 320 nM.

On to `O=C(NCc1cc(F)cc(F)c1)c1cc(C(=O)NCc2cc(F)cc(F)c2)ncn1` [Example 10], for which the 50% inhibitory concentration (IC50) was 300 nM.

In the case of `O=C(NCc1cccc(C(F)(F)F)c1)c1cc(C(=O)NCc2cccc(C(F)(F)F)c2)ncn1` [Example 11], the half-maximal inhibitory concentration (IC50) is 300 nM.

For `O=C(NCc1cccc(Cl)c1)c1ccnc(C(=O)NCc2cccc(Cl)c2)c1` [Example 12], the IC50 was determined as 260 nM.

For the compound `O=C(NCc1ccc(F)c(C(F)(F)F)c1)c1cc(C(=O)NCc2ccc(F)c(C(F)(F)F)c2)ncn1` [Example 13], the half-maximal inhibitory concentration (IC50) was 210 nM.

Regarding `O=C(NCc1cccc(F)c1)c1cc(C(=O)NCc2cccc(F)c2)ncn1` [Example 14], the concentration for half-maximal inhibition (IC50) was 200 nM.

As to `O=C(NCc1ccc(F)cc1)c1cc(C(=O)NCc2ccc(F)cc2)ncn1` [Example 15], the half-maximal inhibitory concentration (IC50) stood at 190 nM.

`O=C(NCc1ccc(F)c(F)c1)c1cc(C(=O)NCc2ccc(F)c(F)c2)ncn1` [Example 16]: the 50% inhibitory concentration (IC50) was found to be 105 nM.

Take `COc1ccc(CNC(=O)c2cc(C(=O)NCc3ccc(OC)cc3)ncn2)cc1` [Example 17]: the IC50 was 80 nM.

As for `O=C(NCc1cccc(Cl)c1)c1cc(C(=O)NCc2cccc(Cl)c2)ncn1` [Example 19], the IC50 was 57 nM.

For `O=C(NCc1ccc2c(c1)OCO2)c1cc(C(=O)NCc2ccc3c(c2)OCO3)ncn1` [Example 20], the IC50 came to 14 nM.

For the compound `COc1cccc(CNC(=O)c2cc(C(=O)NCc3cccc(OC)c3)ncn2)c1` [Example 21], the IC50 is 10 nM.

For the compound `O=C(NCc1ccc2c(c1)CCO2)c1cc(C(=O)NCc2ccc3c(c2)CCO3)ncn1` [Example 22], the 50% inhibitory concentration (IC50) was 9 nM.
